Measured values from US20250034165A1, “COMPOUND CONTAINING CYCLOALKYL OR HALOALKYL” (CHIA TAI TIANQING PHARMACEUTICAL GROUP CO., LTD., priority 2021, published 2025).

What was measured:
[1] = In vitro stability in liver microsomes; type: in vitro ADME; conditions: Human liver microsome
Method: 300 μL of the final incubation system contains 30 μL of liver microsomes (protein concentration: 0.15 mg/mL), 30 μL of NADPH+MgCl2, 3 μL of the test compound (in acetonitrile), and 237 μL of PBS buffer (pH 7.4). The proportion of the organic solvent (acetonitrile) was 1%. Samples were prepared in duplicate of 0.3 mL for each species (e.g., human or mouse liver microsomes). Tubes each containing 270 μL of a mixed solution of substrate and enzyme […] were pre-incubated at 37° C. for 5 min. 30 μL of NADPH+MgCl2 was added and the mixture was mixed. 50 μL of the mixture was taken at 0 min, 15 min, 30 min, and 60 min, and 300 μL of glacial acetonitrile containing an internal standard was added to terminate the reaction.
50 μL of the incubated sample was added with 300 μL of glacial acetonitrile containing an internal standard (20 ng/mL diazepam) for precipitation. The mixture was vortexed for 5 min, and centrifuged (12,000 rpm, 4° C.) for 10 min. 75 μL of supernatant was taken and diluted with 75 μL of ultrapure water. After being homogeneously mixed, 0.5 μL of the resulting sample was injected for analysis.

[2] = target: EGFR (d746-750/T790M/C797S) (Homo sapiens (Human), UniProt P00533, C797S/DEL746-750/T790M); assay: Inhibitory activity for EGFR (d746-750/T790M/C797S) kinase; type: biochemical; conditions: ATP 5 μM; read-out: EGFR(d19/T790M/C797S) (IC50)
EGFR (d746-750/T790M/C797S), sequence (P00533 other isoform, or with tags, fused parts or gaps T790M/C797S/del 1-694/del 746-750 limits assumed): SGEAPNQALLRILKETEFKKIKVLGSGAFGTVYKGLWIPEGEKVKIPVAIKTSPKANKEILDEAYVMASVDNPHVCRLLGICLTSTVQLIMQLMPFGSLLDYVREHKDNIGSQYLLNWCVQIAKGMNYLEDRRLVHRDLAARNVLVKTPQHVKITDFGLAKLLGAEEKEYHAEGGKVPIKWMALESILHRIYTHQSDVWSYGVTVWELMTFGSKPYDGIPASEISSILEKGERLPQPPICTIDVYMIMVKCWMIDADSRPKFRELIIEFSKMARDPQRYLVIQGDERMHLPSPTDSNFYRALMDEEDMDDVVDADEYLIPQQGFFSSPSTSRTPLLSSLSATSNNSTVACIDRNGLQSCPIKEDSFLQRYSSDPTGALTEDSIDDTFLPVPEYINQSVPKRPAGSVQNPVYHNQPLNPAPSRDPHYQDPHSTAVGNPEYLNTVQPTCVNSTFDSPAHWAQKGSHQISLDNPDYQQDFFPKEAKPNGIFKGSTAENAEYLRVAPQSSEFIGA
Method in brief: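 EGFR d746-750/T790M/C797S (0.03 ng/μL final) preincubated 30 min with compound (10 nM–0.0024 nM, 4-fold, 7 points). Reaction with 5 μM ATP and 0.1 μM ULight-poly GT, 2 h at room temperature; EDTA stop, Eu-anti-phosphotyrosine TR-FRET read at 665 nm, IC50 by four-parameter fit.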

[3] = tested on: BAF3-EGFR (L858R/T790M/C797S) cells; assay: Inhibition of proliferation of BAF3-EGFR (L858R/T790M/C797S) cells, CCK-8; type: cell-based; conditions: Ba/F3 EGFR, 72 h, read-out: BAF3(EGFR T790M L858R C797S) cell inhibitory activity IC50
Method in brief: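 BaF3 EGFR L858R/T790M/C797S cells seeded at 1.5×10^5 cells/mL in RPMI + 10% FBS, 37 °C, compound added after overnight, duplicates. Viability by CCK-8; % inhibition vs untreated and blank, IC50 by four-parameter fit.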

[4] = tested on: PC-9 EGFR-Del19-T790M-C797S cells; assay: Inhibition of proliferation of PC-9-EGFR (Del19 T790M C797S) cells, CCK-8; type: cell-based; conditions: 72 h, read-out: PC-9-EGFR (Del19 T790M C797S) cell inhibitory activity IC50
Method: PC-9 EGFR-Del19-T790M-C797S cells in the logarithmic growth phase and good conditions were taken, washed with PBS, digested with pancreatin, terminated with a complete medium, collected and added to a centrifuge tube, adjusted to a cell density of 2×10^4 cells/mL, and seeded in a 96-well plate (100 μL/well). Meanwhile, compounds were loaded using a nanoliter pipettor resulting in the final concentrations of the compounds of 1000 nM-0.06 nM, and a control was set, replicate wells for each concentration. After 72 h of incubation in the cell incubator, the assay reagent CCK-8 (manufacturer: Dojindo Laboratories, Beijing; 10 μL/well) was added. After 2 h of incubation in the cell incubator, absorbance was measured at 450 nm on a PerkinElmer Envision microplate reader, and the inhibition rate was calculated.
(§1) Inhibition rate (%)=(mean value of negative control group-mean value of experimental group)/(mean value of negative control group−mean value of blank group)×100%.
(§2) A dose-response curve was fitted by four-parameter analysis, with the logarithm of compound concentration serving as abscissa and inhibition rate serving as ordinate, such that IC50 was calculated.

[5] = target: EGFR (d746-750 (d19)/T790M) (Homo sapiens (Human), UniProt P00533, DEL746-750/T790M); assay: Inhibitory activity for EGFR (d746-750 (d19)/T790M) kinase; type: biochemical; conditions: ATP 5 μM
EGFR (d746-750 (d19)/T790M), sequence (P00533 other isoform, or with tags, fused parts or gaps T790M/del 1-668/del 746-750 limits assumed): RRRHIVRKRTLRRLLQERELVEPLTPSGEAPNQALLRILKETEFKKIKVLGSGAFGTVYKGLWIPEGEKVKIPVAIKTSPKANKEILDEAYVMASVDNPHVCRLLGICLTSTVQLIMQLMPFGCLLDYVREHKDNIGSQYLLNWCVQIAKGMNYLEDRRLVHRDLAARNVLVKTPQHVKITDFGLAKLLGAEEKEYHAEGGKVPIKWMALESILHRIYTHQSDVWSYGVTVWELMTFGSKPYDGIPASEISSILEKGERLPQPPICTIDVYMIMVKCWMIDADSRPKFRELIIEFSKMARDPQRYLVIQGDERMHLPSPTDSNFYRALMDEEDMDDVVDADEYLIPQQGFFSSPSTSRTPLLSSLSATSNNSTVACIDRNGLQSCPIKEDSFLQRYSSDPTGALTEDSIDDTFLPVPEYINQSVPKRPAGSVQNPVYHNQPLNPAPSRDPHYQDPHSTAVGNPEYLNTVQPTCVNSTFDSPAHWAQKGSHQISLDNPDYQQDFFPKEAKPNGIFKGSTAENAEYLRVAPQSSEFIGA
Method in brief: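 Recombinant EGFR d746-750/T790M (0.003 ng/μL final) preincubated 30 min with compound (10 to 0.0024 nM, 4-fold steps), then 5 μM ATP and 0.1 μM ULight-poly GT added for 2 h at room temperature. EDTA stop, Eu-anti-phosphotyrosine TR-FRET read (665 nm); IC50 by four-parameter fit.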

[6] = tested on: BAF3-EGFR (del19/T790M/C797S) cells; assay: Inhibition of proliferation of BAF3-EGFR (Del19/T790M/C797S) cells, CCK-8; type: cell-based; conditions: Ba/F3 EGFR-Del19/T790M/C797S, 72 h, read-out: BAF3(EGFR T790M Del19 C797S) cell inhibitory activity IC50
Method: A flask of BAF3-EGFR (del19/T790M/C797S) cells in the logarithmic growth phase and good conditions was taken, and the cells were collected and added to a centrifuge tube. 20 μL of cells were taken and counted, and the required number of cells (mL) was pipetted and centrifuged at 1200 rpm for 3 min. The supernatant was discarded, and an appropriate amount of plating medium (RPMI medium+10% FBS) was added to adjust the cell density to 1.0×10^5 cells/mL. The cells were seeded on a 96-well plate at 100 μL/well using a multi-channel pipette and cultured in a cell incubator at 37° C., 5% CO2 with saturated humidity. After overnight incubation, compounds were loaded using a nanoliter pipettor, 2 duplicate wells were set for each concentration, and cells without compound added were used as negative controls.
as §1, §2

[7] = In vivo pharmacokinetics in ICR mice; conditions: mouse, plasma, PO, 10 mg/kg intragastric; for AUC(0-t): read-out: AUC(0-t); for Cmax: read-out: Cmax; for MRT last: read-out: MRT(0-t); for Tmax: read-out: Tmax; for half-life: read-out: T½ (converted)
Method: The animals to be tested (ICR mice) were fasted for 12 h before administration and food was provided 4 h after administration, and water was freely drunk before and after the experiment and during the experiment.
After intragastric administration, about 0.1 mL of blood was collected from the orbit at 0 min, 15 min, 30 min, 1 h, 2 h, 4 h, 6 h, 8 h, 10 h, and 24 h. After anticoagulation with EDTA-K2, blood samples were transferred to a centrifuge within 30 min, and centrifuged at 4000 rpm for 10 min at 4° C. to separate the plasma. All the plasma samples were collected and immediately stored at −20° C. for testing.
300 μL of acetonitrile solution containing an internal standard ([…] diazepam) was added to 20 μL of the plasma sample to be tested and a standard curve sample. The mixture was shaken and homogeneously mixed for 5 min, and centrifuged at 12,000 rpm for 10 min. 70 μL of supernatant was taken and diluted with 70 μL of ultrapure water. After being mixed well, 2 μL of the resulting sample was subjected to LC/MS/MS, and a chromatogram was recorded.

| Compound | Stability in liver microsomes (residual %, T = 60 min) [1] | IC50 [2] | IC50 [3] | IC50 [4] | IC50 [5] | IC50 [6] | further results |
| --- | --- | --- | --- | --- | --- | --- | --- |
| Cc1cc2cc(n1)-c1cnn(C)c1OCCC[C@@H](C1CC1)CN1/C(=N/C2=O)Nc2ccc(NCCCN3CCCCC3)cc21 [Example 80] | – | 0.035 nM | < 5 nM | < 50 nM | 0.01 nM | < 1 nM | – |
| Cc1cc2cc(n1)-c1cnn(C)c1OCCC[C@@H](C1CC1)CN1/C(=N/C2=O)Nc2cc(NC(C)C3(C)COC3)ccc21 (stereo partly shown) [Example 89] | – | 0.36 nM | < 5 nM | < 50 nM | 0.51 nM | < 1 nM | – |
| Cc1cc2cc(n1)-c1cnn(C)c1OCCC[C@@H](C1CC1)CN1/C(=N/C2=O)Nc2cc(NCCCN3CCCCC3)ccc21 [Example 71] | 82.82% | – | – | – | – | – | AUC(0-inf) [7]: 1680 ng·h/mL; AUC(0-t) [7]: 1620 ng·h/mL; Cmax [7]: 138 ng/mL; MRT last [7]: 7.85 h; Tmax [7]: 6 h; half-life [7]: 4.5 h |
| Cc1cc2cc(n1)-c1cnn(C)c1OCCC[C@@H](C1CC1)CN1/C(=N/C2=O)Nc2ccc(N[C@H]3C[C@@H](N(C)C)C3)cc21 [Example 127] | 75.00% | – | – | < 50 nM | 0.12 nM | – | – |
| Cc1cc2cc(n1)-c1cnn(C)c1OCCC[C@@H](C1CC1)CN1/C(=N/C2=O)Nc2ccc(NC(C)CN(C)C)cc21 (stereo partly shown) [Example 63] | – | 0.013 nM | < 5 nM | < 50 nM | 0.008 nM | < 1 nM | – |
| Cc1cc2cc(n1)-c1cnn(C)c1OCCC[C@@H](C1CC1)CN1/C(=N/C2=O)Nc2cc(N[C@@H](C)CN(C)C)ccc21 [Example 68] | 78.57% | – | – | – | – | – | AUC(0-inf) [7]: 1960 ng·h/mL; AUC(0-t) [7]: 1950 ng·h/mL; Cmax [7]: 148 ng/mL; MRT last [7]: 7.54 h; Tmax [7]: 4 h; half-life [7]: 3.04 h |
| Cc1cc2cc(n1)-c1cnn(C)c1OCCC[C@@H](C1CC1)CN1/C(=N/C2=O)Nc2ccc(NC3CCN(C(C)C)CC3)cc21 [Example 54] | – | 0.021 nM | < 5 nM | < 50 nM | 0.013 nM | < 1 nM | – |
| Cc1cc2cc(n1)-c1cnn(C)c1OCCC[C@@H](C1CC1)CN1/C(=N/C2=O)Nc2ccc(N[C@@H]3CC[C@@H](N(C)C)C3)cc21 [Example 130] | 56.81% | 0.056 nM | < 5 nM | – | – | – | – |
| Cc1cc2cc(n1)-c1cnn(C)c1OCCC[C@@H](C1CC1)CN1/C(=N/C2=O)Nc2cc(N[C@H]3C[C@@H](N(C)C)C3)ccc21 [Example 125] | 93.95% | 0.08 nM | – | – | – | – | – |

More lines, in order of falling IC50 [2], values ahead:

| Stability in liver microsomes (residual %, T = 60 min) [1] | IC50 [2] | IC50 [3] | IC50 [4] | IC50 [5] | IC50 [6] | Compound | further results |
| --- | --- | --- | --- | --- | --- | --- | --- |
| 77.10% | 0.12 nM | – | – | – | – | [2H]C([2H])([2H])N(C[C@H](C)Nc1ccc2c(c1)N/C1=N/C(=O)c3cc(C)nc(c3)-c3cnn(C)c3OCCC[C@@H](C3CC3)CN12)C([2H])([2H])[2H] [Example 124] | – |
| 95.34% | 0.097 nM | < 5 nM | – | – | – | Cc1cc2cc(n1)-c1cnn(C)c1OCCC[C@@H](C1CC1)CN1/C(=N/C2=O)Nc2cc(N[C@@H]3CC[C@H](N(C)C)C3)ccc21 [Example 133] | – |
| 65.19% | 0.069 nM | < 5 nM | – | – | – | Cc1cc2cc(n1)-c1cnn(C)c1OCCC[C@@H](C1CC1)CN1/C(=N/C2=O)Nc2ccc(N[C@@H]3CC[C@H](N(C)C)C3)cc21 [Example 134] | – |
| 63.76% | 0.066 nM | < 5 nM | < 50 nM | – | – | Cc1cc2cc(n1)-c1cnn(C)c1OCCC[C@@H](C1CC1)CN1/C(=N/C2=O)Nc2ccc(N[C@H]3CC[C@@H](N(C)C)C3)cc21 [Example 132] | – |
| 92.24% | 0.065 nM | – | – | – | – | Cc1cc2cc(n1)-c1cnn(C)c1OCCC[C@@H](C1CC1)CN1/C(=N/C2=O)Nc2cc(N[C@@H]3CC[C@@H](N(C)C)C3)ccc21 [Example 129] | – |
| 71.24% | 0.063 nM | < 5 nM | < 50 nM | – | – | Cc1cc2cc(n1)-c1cnn(C)c1OCCC[C@@H](C1CC1)CN1/C(=N/C2=O)Nc2ccc(NC(=O)CCN(C)C)cc21 [Example 112] | – |
| 81.11% | 0.04 nM | < 5 nM | – | 0.013 nM | – | Cc1cc2cc(n1)-c1cnn(C)c1OCCC[C@@H](C1CC1)CN1/C(=N/C2=O)Nc2cc(NCCCN3CCCC3)ccc21 [Example 70] | – |
| – | 0.037 nM | < 5 nM | < 50 nM | 0.011 nM | < 1 nM | Cc1cc2cc(n1)-c1cnn(C)c1OCCC[C@@H](C1CC1)CN1/C(=N/C2=O)Nc2ccc(NCCCN3CCOCC3)cc21 [Example 81] | – |
| – | 0.021 nM | < 5 nM | < 50 nM | 0.014 nM | < 1 nM | Cc1cc2cc(n1)-c1cnn(C)c1OCCC[C@@H](C1CC1)CN1/C(=N/C2=O)Nc2cc(NCC3(C)COC3)ccc21 [Example 40] | – |
| 73.66% | 0.02 nM | – | – | 0.012 nM | – | Cc1cc2cc(n1)-c1cnn(C)c1OCCC[C@@H](C1CC1)CN1/C(=N/C2=O)Nc2ccc(NC3CCN(C)CC3)cc21 [Example 20] | – |
| – | 0.016 nM | < 5 nM | < 50 nM | 0.0089 nM | < 1 nM | Cc1cc2cc(n1)-c1cnn(C)c1OCCC[C@@H](C1CC1)CN1/C(=N/C2=O)Nc2cc(N(C)C3COC3)ccc21 [Example 41] | – |
| 83.39% | 0.015 nM | – | – | 0.0098 nM | – | Cc1cc2cc(n1)-c1cnn(C)c1OCCC[C@@H](C1CC1)CN1/C(=N/C2=O)Nc2cc(NC3CN(C)C3)ccc21 [Example 33] | – |
